Legend:
[1] = test system: hyperlipidemia Chinese hamster; assay: Lipid lowering effects of berberine in hyperlipidemia Chinese hamster; format: in vivo; conditions: for LDL reduced by: after the 10 day treatment; for LDL Protein / Triglycerides / Cholesterol: serum, ten days; for LDL Protein: saline control 2.8 ± 0.9; for Triglycerides: saline control 3.6 ± 0.4; for Cholesterol: saline control 6.4 ± 1.0
Procedure: Two weeks prior to treatment, female Chinese hamsters purchased from the National Institute of Vaccine and Serum research (Beijing, China) were switched to a high fat and cholesterol diet (10% lard, 10% egg yolk powder and 1% cholesterol). After two weeks, groups of 14 hamsters were given either 10 mg/kg/day of berberine through peritoneal injection, 20 mg/kg/day of berberine through peritoneal injection, 50 mg/kg/day, 100 mg/kg/day of berberine orally or saline for ten days. Serum cholesterol, triglyceride and LDL levels were measured after 4 h fasting before, during and after the course of the treatment. Four hours after the course of the treatment, the animals were sacrificed and their livers removed for analysis.

[2] = test system: hyperglycemic rats; assay: Hyperglycemic HFHC diet/streptozotocin Wistar rats: blood glucose, serum insulin, ISI, serum lipids; format: in vivo, Wistar rat; conditions: for reduction of fasting blood glucose vs untreated rats on same HFHC diet: 14 days
Procedure: Nineteen Wistar rats (Male, 250g, the Institute of Experiment Animal Sciences, Chinese Academy of Medical Sciences, Beijing) were fed high fat and high cholesterol (HFHC) diet containing 25% lard, 20% sucrose and 5% yolk powder (Institute of Experiment Animal Sciences) for 4 weeks to induce insulin resistance status. Then, after fasting for 24 hours, 20 mg/kg of streptozotocin (Sigma) dissolved in 0.01 M citric acid buffer (pH 4.3) was injected via the tail vein. A week later, rats with blood glucose concentrations over 11.1 mmol/L were considered hyperglycemic and divided into two groups of 7 and one group of 5 as the control.
The rats in the two groups of 7 were treated with berberine orally twice a day for 14 days, at 8:00 am and 5:00 pm, with a total dose of berberine at 75 mg/kg/day or 150 mg/kg/day, respectively. Blood samples were taken by tail snip after 4 hours fasting on indicating days of treatment, and blood glucose was measured. On the last day of the experiment, all of the rats fasted overnight and were then sacrificed.
The livers were dissected and stored in liquid nitrogen for RNA extraction, real-time RT-PCR and PKC activity assay. Total blood samples were also collected to assay fasting blood glucose and serum insulin levels. The insulin levels were analyzed using radio-immunoassay (Linco Research, St Charles, Mo.). The insulin sensitivity indexes (ISI) were calculated according to the formula: 10^4/(fasting serum insulin X fasting blood glucose) (Hanson, Am. J. Epidemiol. 15 1(2), 190-198 (2000)). The insulin level and ISI of normal rats were also determined for comparison. […] It also elevated the fasting blood glucose from 7 to 12.8 mmol/L (P<0.001).

[3] = in vitro; format: in vitro ADME; conditions: rabbit
Procedure: The rabbit blood protein binding rate was measured by in vitro dialysis at a rate of 38±3% (XD±S, n=6).

[4] = test system: LDLR mRNA; assay: Screen of 700 compounds from Chinese herbs for LDLR mRNA in HepG2 cells (semi-quantitative RT-PCR); format: cell-based, human; conditions: HepG2, 24 hours
Procedure: In exemplary experiments, cells from a human hepatoma-derived cell line, HepG2, were treated for 24 hours with 700 compounds isolated from Chinese herbs. RNA was then isolated from the cells and analysis of LDLR mRNA was determined using semi-quantitative RT-PCR assays. […] Treating HepG2 cells cultured in medium containing 0.5% lipoprotein-depleted fetal bovine serum or serum supplemented with sterols and berberine caused time dependent increases in the expression of LDLR mRNA.

[5] = Excretion of berberine in rats (urine, fecal matter, gall bladder secretions); format: in vivo, rat; conditions: rat, in vivo, iv
Procedure: In a final series of animal model studies, rats were orally administered 3H-berberine. Forty-eight hours after administration, excretions were tested for the presence of berberine. 2.7% of the oral dose was measured in the urine and 86% of the oral dose was measured in the fecal matter.
Rats received intravenous berberine (9.25 MBq/kg). Six days accumulation of rat urine and fecal secretions were measured for the presence of berberine. 73% of the intravenous dose of the berberine was found in the accumulated urine in both metabolized and unmetabolized forms. 10.9% of the intravenous dose was found in the fecal matter.
Three rats were given berberine (9.25 MBq/kg) intravenously. After 24 hours, gall bladder secretions were collected and evaluated for the presence of berberine. There was 10.1±0.9% (x±SD, n=3) of berberine in the gall bladder secretions.

[6] = test system: rats; conditions: rat, in vivo
[7] = test system: InsR; assay: InsR expression on peripheral blood lymphocytes of patients (flow cytometry); format: in vivo, human; conditions: patients after two months of berberine
From the text: Peripheral blood lymphocytes (PBL) were collected for InsR expression analysis. InsR protein expressed on the surface of peripheral blood lymphocytes were stained with monoclonal antibody against human insulin receptor (Pharmagen, San Diego, Calif.) and analyzed in a flow cytometer (BD and Company, San Jose, Calif.)

[8] = test system: PKC; assay: Cellular PKC activity in HepG2 cells (PepTag assay); format: cell-based, human
Procedure: To determine whether berberine directly activates PKC, pGL3-1.5kIRP transfected HepG2 cells were either not treated, treated with 0.2 μM of calphostin C, 5 μg/ml of berberine or 0.5 μM of PKC activator phorbol-12-myristate-13-acetate (PMA) (Gandino, Oncogene, 5(%), 721-725 (1990) or combinations thereof for eight hours. The activity of total PKC in the control and berberine treated cells was assessed by PKC activity assay.
Cellular PKC activity was analyzed using the PepTag® Assay for Non-Radioactive Detection of Protein Kinase-C or cAMP-Dependent Protein Kinase kit (Promega) according to the protocol. Briefly, after homogenization and partial purification, 10 μl of sample protein was mixed with 5 μl of PepTag® Cl peptide (specific substrate of PKC), 5 μl of reaction buffer and 5 μl of PKC activator solution in a 25 μl reaction system. The reactions were performed at 30° C. for 30 minutes. Then, the samples were loaded onto a 0.8% agarose gel. […] They were transferred to a 96-well plate and quantified using densitometry according to the supplier's protocol. The catalytic activity of total PKC of a specific sample was expressed as pmol/min/mg, representing the number of picomoles of phosphate transferred to the substrate per minute per milligram of proteins of the sample.

[9] = 10 mg/kg/day peritoneal injection
[10] = 20 mg/kg/day peritoneal injection
[11] = 150 mg/kg/day, 14 day treatment

In the case of `COc1ccc2cc3[n+](cc2c1OC)CCc1cc2c(cc1-3)OCO2` [berberine], the “LDL reduced by” value ([1]; 50 mg/kg/day) is reported as 26%, the “LDL reduced by” value ([1]; 100 mg/kg/day) is reported as 42% and the “LDL Protein” value [1, 9] is reported as 1.6 ± 0.3. For the same compound, the Triglycerides [1, 9] was 2.6 ± 0.3, the Cholesterol [1, 9] was 4.1 ± 0.7 and the “LDL Protein” value [1, 10] was 0.9 ± 0.1. The Triglycerides [1, 10] was 1.7 ± 0.5, the Cholesterol [1, 10] was 3.2 ± 0.5 and the “LDL Protein” value ([1]; 50 mg/kg/day (orally)) was 2.07 ± 0.9. The Cholesterol ([1]; 50 mg/kg/day (orally)) was 3.5 ± 0.5, the “LDL Protein” value ([1]; 100 mg/kg/day oral) was 1.2 ± 0.2 and the Triglycerides ([1]; 100 mg/kg/day oral) was 1.9 ± 0.4. The Cholesterol ([1]; 100 mg/kg/day oral) was 3.8 ± 0.7, the “reduction of fasting blood glucose vs untreated rats on same HFHC diet” value ([2]; 75 mg/kg/day orally) was 22% and the “reduction of fasting blood glucose vs untreated rats on same HFHC diet” value ([2]; 150 mg/kg/day orally) was 33%. For the same compound, the “reduction of LDL-c vs control animals on same HFHC diet” value [2, 11] was 33%, the “reduction of cholesterol vs control animals on same HFHC diet” value [2, 11] was 25% and the “reduction of triglyceride vs control animals on same HFHC diet” value [2, 11] was 24%. For the same compound, the “fasting serum insulin levels” value ([2]; insulin resistant HFHC rats) was “significantly reduced the serum insulin levels”, the fraction unbound [3] was 0.62 and the “LDLR expression among 700 compounds tested” value [4] was “greatest increase in LDLR expression”. For the same compound, the “intravenous dose found in accumulated urine (metabolized and unmetabolized forms)” value [5] was 73%, the “intravenous dose found in the fecal matter” value [5] was 10.9% and the birth defects [6] was “No birth defects were evident”. The “% of PBL expressing InsR on the surface” value [7] was “significantly increased”, the “time at which elevation of PKC activity was first observed” value ([8]; after berberine treatment) was 0.5 h and the “PKC activity in liver cells” value ([8]; time-dependent) was “increased”.

— patent US20080081781A1, “Methods and compositions for the treatment of metabolic syndrome” (priority 2004, published 2008)
